Data: article PMC1247619 (Environmental Health Perspectives, 2004)

Columns and labels:
human ER-α (hER-α) = biological target: T1, human ER-α (hER-α) (Homo sapiens, UniProt P03372); test: In vitro estrogenic activity assay, stable HEK cell line with hER-α and ERE-luciferase reporter; format: cell-based
T1 construct: expressed in transfected cells
T1 sequence (P03372 1-595): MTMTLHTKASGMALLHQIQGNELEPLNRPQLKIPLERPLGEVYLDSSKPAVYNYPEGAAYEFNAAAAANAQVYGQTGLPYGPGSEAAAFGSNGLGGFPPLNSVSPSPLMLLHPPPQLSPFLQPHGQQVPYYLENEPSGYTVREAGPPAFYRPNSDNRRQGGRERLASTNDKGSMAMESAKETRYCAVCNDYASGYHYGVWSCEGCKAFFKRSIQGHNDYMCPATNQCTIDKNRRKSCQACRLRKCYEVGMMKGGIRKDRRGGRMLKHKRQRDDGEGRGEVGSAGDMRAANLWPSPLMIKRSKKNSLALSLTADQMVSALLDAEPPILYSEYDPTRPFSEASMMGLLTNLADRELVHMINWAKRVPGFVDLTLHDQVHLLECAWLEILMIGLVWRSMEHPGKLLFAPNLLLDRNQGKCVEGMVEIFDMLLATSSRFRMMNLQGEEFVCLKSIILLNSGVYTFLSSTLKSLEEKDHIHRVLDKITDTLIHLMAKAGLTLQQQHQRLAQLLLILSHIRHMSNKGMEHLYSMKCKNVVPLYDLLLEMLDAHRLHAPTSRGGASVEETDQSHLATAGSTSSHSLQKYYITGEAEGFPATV
Method: (§1) Briefly, cells were plated in 96-well tissue culture plates (NUNC, Life Technologies, Breda, The Netherlands) in medium consisting of phenol red–free Dulbecco’s modified Eagle’s medium/F12 (1:1) medium containing 3 × 10^−8 M selenite, 10 μg/mL transferrin, 0.2% (wt/vol) bovine serum albumin, and 5% (wt/vol) dextran-coated charcoal-stripped fetal calf serum. […] Luciferase activity of 25 μL cell lysate was measured with the Luclite Luciferase Reporter gene assay kit (Perkin-Elmer, Brussels, Belgium) according to the manufacturer’s instructions using 25 μL Luclite solution on a Topcount liquid scintillation counter (Perkin-Elmer).
(§2) The in vitro dose–response activation curves obtained with the stable cell lines were fitted using the sigmoidal fit {y = a0 + a1/1 + exp[–(x – a2)/a3]} in Slidewrite Plus for Windows (version 3.0; BIS, Ridderkerk, The Netherlands), which determines the fitting coefficients by an iterative process minimizing the c2 merit function (least squares criterion). […] The cell line data shown are the average of at least two independent experiments with each experimental point performed in triplicate. Data are shown as a percentage of maximal induction by E2.

hER-β = biological target: T2, hER-β (Homo sapiens, UniProt Q92731); test: In vitro estrogenic activity assay, stable HEK cell line with hER-β and ERE-luciferase reporter; format: cell-based
T2 construct: expressed in transfected cells
T2 sequence (Q92731 whole entry): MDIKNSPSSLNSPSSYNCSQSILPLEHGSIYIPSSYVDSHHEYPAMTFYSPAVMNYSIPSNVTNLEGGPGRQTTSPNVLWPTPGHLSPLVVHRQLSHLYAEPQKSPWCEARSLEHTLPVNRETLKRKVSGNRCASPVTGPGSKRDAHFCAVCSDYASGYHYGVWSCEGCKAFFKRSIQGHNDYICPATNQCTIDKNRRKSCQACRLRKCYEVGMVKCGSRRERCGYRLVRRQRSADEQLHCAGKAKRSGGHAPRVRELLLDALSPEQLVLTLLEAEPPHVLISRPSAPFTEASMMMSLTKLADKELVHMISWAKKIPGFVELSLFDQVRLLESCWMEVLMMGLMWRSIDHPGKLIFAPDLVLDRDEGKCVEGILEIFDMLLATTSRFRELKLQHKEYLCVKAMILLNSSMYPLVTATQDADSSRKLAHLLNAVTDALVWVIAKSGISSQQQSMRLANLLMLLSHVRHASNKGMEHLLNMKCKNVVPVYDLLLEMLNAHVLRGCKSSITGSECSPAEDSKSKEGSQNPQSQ
Method: as §1, §2

estrogen receptors (ERs) [1] = test: In vivo (in utero) luciferase measurement with IVIS imaging in transgenic ERE-luciferase embryos; parameters: species or system mouse; conditions: 10,000 μg/kg, 8 hr after exposure
Method: (§3) To obtain transgenic embryos, heterozygote transgenic males from line INS3 were mated with wild-type females (F1 from C57Bl/6J × CBA). Heterozygote males were used so that every litter would also contain wild type embryos, which could serve as an internal negative control. Females were checked daily for the presence of a vaginal plug, and when a plug was detected, that day was designated 0.5 day postcoitum (dpc).
(§4) Animal experiments were performed with approval of the Netherlands Academy of Arts and Sciences Animal Ethics Committee. The IVIS imaging experiments were done with additional approval of the Animal Ethics Committee of NV Organon.
(§5) We considered one litter as a statistical unit rather than one embryo because we assumed that all embryos in one litter were subject to the same variation of the compound injection and placental transfer. Therefore, the average ± SEM per litter was calculated, and these were then averaged to express the luciferase activity per group. All data were log-transformed and tested for normality with the Shapiro-Wilks test using SPSS 12.0 (SPSS, Chicago, IL, USA).

estrogen receptors (ERs) [2] = test: Ex vivo luciferase measurement in lysates of transgenic embryos exposed in utero; parameters: species or system mouse
Method: as §3, §4
When embryos were isolated from the amniotic membranes, we kept tails separated and stored at –20°C for subsequent DNA isolation and polymerase chain reaction for presence of the transgene, as described previously ([Legler et al. 2000]). Only transgenic embryos were used for further luciferase measurement. Subsequently, embryos were thawed on ice and lysis buffer [1% (vol/vol) Triton X-100, 2.5 × 10^−2 M glycylglycine, 1.5 × 10^−2 M MgSO4, 4 × 10^−3 M EGTA, and 1 × 10^−3 M dithiothreitol (DTT)] was added. Next, samples were sonicated, the lysate centrifuged, and the supernatant collected. […] Luciferase activity was corrected for protein content as measured with the Bradford assay.
as §5

[3] = parameters: method as in Takahashi and Oishi 2000; conditions: pregnant rats; ref Takahashi and Oishi 2000; cited from earlier work
ER = test system: ER; parameters: method as in Nagel et al. (2001); conditions: 1 mg/kg; ref Nagel et al. (2001); cited from earlier work
human and mouse ER-α = test system: human and mouse ER-α; parameters: method as in Matthews et al. 2000; conditions: ref Matthews et al. 2000; cited from earlier work
uterine wet weight = conditions: cited from earlier work
[4] = pregnant mice, 100 mg/kg subcutaneously; ref Domoradzki et al. 2003; Shin et al. 2002; Uchida et al. 2002; cited from earlier work
[5] = parameters: method as in McLachlan 1977; conditions: 14C-DES injected in pregnant mice; ref McLachlan 1977; cited from earlier work
estrogen receptors (ERs) [6] = conditions: adult transgenic animals; ref Lemmen et al. 2004; cited from earlier work

Compound | times less active than DES in activating ER-α (human ER-α (hER-α)) | times less active than DES toward ER-β transactivation (hER-β) | luciferase activity versus oil-exposed animals, IVIS (estrogen receptors (ERs) [1]) | luciferase activity versus oil-exposed controls, embryo lysates (estrogen receptors (ERs) [2]; 1,000 μg/kg, 8 hr after exposure) | luciferase activity versus oil-exposed controls, embryo lysates (estrogen receptors (ERs) [2]; 10,000 μg/kg, 8 hr after exposure) | dose at which in utero luciferase activation was significant from oil-exposed controls (estrogen receptors (ERs) [2]; 8 hr after exposure) [mg/kg] | luciferase activity versus oil-exposed animals, embryo lysates (estrogen receptors (ERs) [2]; 24 hr after exposure, BPA 10–10,000 μg/kg (Figure 2)) | time of peak concentration in fetal circulation [3] [min] | ER transcriptional activity in the adult uterus (ER) | affinity of human versus mouse ER-α (human and mouse ER-α) | uterine wet weight response (uterine wet weight; 1 mg/kg, ref Nagel et al. (2001)) | uterotrophic response (uterine wet weight; CD-1 mice, 100 mg/kg, ref Markey et al. 2001) | activity in the uterine wet weight assay (uterine wet weight; CFLP mice, 0.5 mg/mouse (~ 16.7 mg/kg), ref Coldham et al. 1997) | toxicity in the uterine wet weight assay (uterine wet weight; mouse, in vivo, 167 mg/kg) | time after exposure at which detected in fetal sera, liver, brain, uterus and testes [4] [min] | time of peak fetal plasma levels [5] [h] | time of peak luciferase activity after exposure (estrogen receptors (ERs) [6]) [h]
CC(C)(c1ccc(O)cc1)c1ccc(O)cc1 [BPA, bisphenol A] | 5,000 times | 1,400 times | not statistically significant | significantly higher | significantly higher | 1 | no difference | 15 to 20 | significant increase | same affinity | did not induce | induced | inactive | toxic | 30 |  | 
CC/C(=C(/CC)c1ccc(O)cc1)c1ccc(O)cc1 [DES, diethylstilbestrol, reference compound] |  |  |  |  |  |  |  |  |  | same affinity |  |  |  |  |  | 2 | 
C[C@]12CC[C@@H]3c4ccc(O)cc4CC[C@H]3[C@@H]1CC[C@@H]2O [E2, 17β-estradiol] |  |  |  |  |  |  |  |  |  |  |  |  |  |  |  |  | 8
